In patent US5948791A, “Quinoline derivatives for treating malaria” (Hoffmann-La Roche Inc., priority 1995, dated 1999) one finds IC50, Resistance index and inhibition in vivo data, which are given here for 8 compounds.

Structures are written as SMILES. Read-outs that look alike come from different tables or passages of the source.

For test [1], the system named is Plasmodium falciparum strain NF54. The test is described as follows: Growth inhibition of Plasmodium falciparum NF54 (chloroquine-sensitive) in vitro, [G-3H]-hypoxanthin incorporation. The format is cell-based. Particulars: chloroquine-sensitive strain NF54, 72 h, read-out: IC50 for P. falciparum NF54. A digest of the protocol:
(§1)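 Asynchronous intraerythrocytic cultures in human A+ erythrocytes (0.7% parasitemia, 2.5% suspension) in RPMI 1640 with HEPES, NaHCO3 and human serum, exposed to compound titrated over 6-7 steps for 72 h at 37° C, 3% O2. Growth by [G-3H]-hypoxanthin incorporation against untreated controls; IC50 by logit regression.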

The test system of test [2] is Plasmodium falciparum K1. The test is described as follows: Growth inhibition of Plasmodium falciparum K1 (chloroquine-resistant) in vitro, [G-3H]-hypoxanthin incorporation. The test is classed as cell-based, Plasmodium falciparum (strain K1). Particulars: for IC50: Plasmodium falciparum, K1, 72 h, read-out: IC50 for P. falciparum K1; for Resistance index: ratio of the IC50 for K1 and the IC50 for NF54. The method in brief: as §1

Test [3] has as its system Plasmodium berghei. The test is described as follows: animal or person. The format is in vivo, Plasmodium berghei (strain ANKA) in mice. The note with it: Plasmodium berghei, mice, blood smears 48 h after treatment. The method in brief: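 Male albino mice (~25 g) infected i.v. on D0 with P. berghei ANKA (0.2 ml of 10^8 parasitized erythrocytes/ml); single s.c. and p.o. dose 24 h post-infection, 10 mg/kg screen then titration.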

[4] abbreviates: po, single peroral dose of 10 mg/kg, read-out: Growth inhibition in % after po administration (GI%, percentage reduction of the parasitemia).
[5] abbreviates: sc, single subcutaneous dose of 10 mg/kg, read-out: Growth inhibition in % after sc administration (GI%, percentage reduction of the parasitemia).

The IC50 is the concentration needed to halve the response being measured.

For `Cl.Cl.FC(F)(F)c1ccc(CN[C@H]2CCCC[C@@H]2Nc2ccnc3cc(Cl)ccc23)c(C(F)(F)F)c1` [Example 64, (1S,2S)-N1-(7-Chloro-quinolin-4-yl)-N2-(2,4-bis-trifluoromethyl-benzyl)-cyclohexane-1,2-diamine dihydrochloride], the IC50 came out at 35.7 ng/mL in test [1] and 82.3 ng/mL in test [2]. Also, in test [2], the Resistance index stood at 2.3. In addition, the inhibition in vivo at 10 mg/kg stood at 87% in test [3] (setting [4]) and 66% in test [3] (setting [5]).

As to `CN(C)c1ccc(CN[C@H]2CCCC[C@@H]2Nc2ccnc3cc(Cl)ccc23)cc1.Cl.Cl` [Example 66, (1S,2S)-N1-(7-Chloro-quinolin-4-yl)-N2-(4-dimethylamino-benzyl)-cyclohexane-1,2-diamine dihydrochloride], the IC50 in test [1] is 5.6 ng/mL; in test [2] it was 10.5 ng/mL. The Resistance index in test [2] is reported as 1.9. The inhibition in vivo at 10 mg/kg in test [3] (setting [4]) worked out at 99.9%; in test [3] (setting [5]), 99.6%.

Regarding `Cl.Cl.N#Cc1ccc(CN[C@H]2CCCC[C@@H]2Nc2ccnc3cc(Cl)ccc23)cc1` [Example 67, (1S,2S)-N1-(7-Chloro-quinolin-4-yl)-N2-(4-cyano-benzyl)-cyclohexane-1,2-diamine dihydrochloride], the IC50 was found to be 9.1 ng/mL in test [1] and 23 ng/mL in test [2]. Besides, the Resistance index in test [2] was 2.5. Further, the inhibition in vivo at 10 mg/kg in test [3] (setting [4]) and in test [3] (setting [5]) was 99% each time.

As for `CN(C)c1ccc(CN[C@H]2CC[C@@H](Nc3ccnc4cc(Cl)ccc34)CC2)cc1.Cl.Cl.Cl` [Example 69, cis-N1-(7-Chloro-quinolin-4-yl)-N4-(4-dimethylamino-benzyl)-cyclohexane-1,4-diamine trihydrochloride], the IC50 in test [1] stood at 3.7 ng/mL; in test [2], 4.6 ng/mL. Moreover, in test [2], the Resistance index is 1.2. The inhibition in vivo at 10 mg/kg in test [3] (setting [4]) and in test [3] (setting [5]) was 100% in each case.

For `Cl.Cl.Clc1ccc2c(N[C@H]3CC[C@@H](NCc4ccccc4)CC3)ccnc2c1` [Example 70, cis-N1-(7-Chloro-quinolin-4-yl)-N4-(benzyl)-cyclohexane-1,4-diamine dihydrochloride], the values for the IC50 in test [1] and in test [2] were 3.8 ng/mL and 6.6 ng/mL, respectively. Besides, the Resistance index in test [2] was determined as 1.7. Also, the inhibition in vivo at 10 mg/kg in test [3] (setting [4]) and in test [3] (setting [5]) was 99.9% in each case.

In the case of `Cl.Cl.Clc1cccc(CN[C@H]2CC[C@@H](Nc3ccnc4cc(Cl)ccc34)CC2)c1` [Example 71, cis-N1-(7-Chloro-quinolin-4-yl)-N4-(3-chloro-benzyl)-cyclohexane-1,4-diamine dihydrochloride], the results for the IC50 in test [1] and in test [2] were 7.1 ng/mL and 9.3 ng/mL, respectively. The Resistance index in test [2] came to 1.3. In addition, the inhibition in vivo at 10 mg/kg amounted to 99.8% in test [3] (setting [4]) and 99.9% in test [3] (setting [5]).

As to `Cl.Cl.Clc1ccc(CN[C@H]2CC[C@@H](Nc3ccnc4cc(Cl)ccc34)CC2)cc1` [Example 72, cis-N1-(7-Chloro-quinolin-4-yl)-N4-(4-chloro-benzyl)-cyclohexane-1,4-diamine dihydrochloride], the concentration for half-maximal inhibition (IC50) turned out to be 11.6 ng/mL in test [1] and 11.2 ng/mL in test [2]. Moreover, the Resistance index in test [2] is recorded as 1.0. Also, the inhibition in vivo at 10 mg/kg stood at 99.5% in test [3] (setting [4]) and 99.9% in test [3] (setting [5]).

For the compound `Cl.Cl.Clc1ccc(CN[C@H]2CC[C@@H](Nc3ccnc4cc(Cl)ccc34)CC2)c(Cl)c1` [Example 73, cis-N1-(7-Chloro-quinolin-4-yl)-N4-(2,4-dichloro-benzyl)-cyclohexane-1,4-diamine dihydrochloride], the IC50 in test [1] amounted to 15 ng/mL; in test [2], 19 ng/mL. Besides, the Resistance index in test [2] was determined as 1.3. Moreover, the values for the inhibition in vivo at 10 mg/kg in test [3] (setting [4]) and in test [3] (setting [5]) were 23% and 96%, respectively.
